# Patent publication US7273694B2, “Method and apparatus for reducing pathogens in a biological sample” (Safety Art, LLC, priority 2001, dated 2007)
# Read-outs that look alike come from different tables or passages of the source.
# Tests used:
# Campylobacter fetus = test: Antibiotic sensitivity of bacterial isolate; format: cell-based
# [1] = test system: Brucella abortus Strain 19; format: cell-based; settings: Strain 19 [vaccine strain]
# [2] = test system: fresh semen of gaur (Bos gaur) bulls
# [3] = test system: fresh semen of domestic bulls (Bos taurus)
# [4] = test system: cryopreserved bovine (Bos gaurus) sperm
Compound,sensitivity of C. fetus to antibiotic (Campylobacter fetus; laboratory isolate [4914]),sensitivity of B. abortus to antibiotic [1],"detrimental effects on sperm (motility, viability, acrosomal integrity) [2]","detrimental effects on sperm (motility, viability, acrosomal integrity) [3]",detrimental effects of increasing the concentration [4],sensitivity of C. fetus to antibiotic (Campylobacter fetus)
CN[C@@H]1[C@H](O)[C@H](NC)[C@H]2O[C@@]3(O)C(=O)C[C@@H](C)O[C@H]3O[C@@H]2[C@H]1O [spectinomycin],intermediate,sensitive,–,–,–,–
CC[C@H]1OC(=O)C[C@@H](O)[C@H](C)[C@@H](O[C@@H]2O[C@H](C)[C@@H](O[C@H]3C[C@@](C)(O)[C@@H](O)[C@H](C)O3)[C@H](N(C)C)[C@H]2O)[C@@H](CC=O)C[C@@H](C)C(=O)/C=C/C(C)=C/[C@@H]1CO[C@@H]1O[C@H](C)[C@@H](O)[C@@H](OC)[C@H]1OC [tylosin],intermediate,intermediate,–,–,–,–
CCC[C@@H]1C[C@@H](C(=O)N[C@@H]([C@H]2O[C@H](SC)[C@H](O)[C@@H](O)[C@H]2O)[C@@H](C)O)N(C)C1 [lincomycin],sensitive,resistant,–,–,–,–
trypsin,–,–,no detrimental affects,no detrimental affects,no detrimental effects,–
gentamicin,–,sensitive,–,–,–,sensitive
